These results are taken from paper PMC3974814, “In Vitro Evaluation of the Inhibitory Potential of Pharmaceutical Excipients on Human Carboxylesterase 1A and 2” (PLoS ONE, 2014).

SMILES strings stand for the structures.

Assay [1] has as its target T1, recombinant human CES1A1 (Homo sapiens, UniProt P23141).
T1 construct: purchased BD Gentest (Woburn, MA); host or cells: baculovirus-insect cells
T1 sequence (P23141 18-567): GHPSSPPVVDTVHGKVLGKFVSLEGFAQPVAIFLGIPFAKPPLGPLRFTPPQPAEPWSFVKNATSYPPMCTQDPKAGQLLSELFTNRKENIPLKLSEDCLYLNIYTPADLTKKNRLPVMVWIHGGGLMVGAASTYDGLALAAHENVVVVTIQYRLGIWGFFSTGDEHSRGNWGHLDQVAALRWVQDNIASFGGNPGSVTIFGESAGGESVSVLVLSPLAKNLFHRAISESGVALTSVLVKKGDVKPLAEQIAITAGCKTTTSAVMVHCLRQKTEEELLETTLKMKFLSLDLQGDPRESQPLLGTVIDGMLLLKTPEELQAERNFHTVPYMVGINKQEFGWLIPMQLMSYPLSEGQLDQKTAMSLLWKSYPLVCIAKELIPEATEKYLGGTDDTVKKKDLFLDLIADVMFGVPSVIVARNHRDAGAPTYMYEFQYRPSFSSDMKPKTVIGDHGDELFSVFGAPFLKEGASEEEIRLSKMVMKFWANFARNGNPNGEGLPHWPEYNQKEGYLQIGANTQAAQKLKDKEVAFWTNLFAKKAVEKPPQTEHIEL
In words: Imidapril hydrolase activity (imidaprilat formation) of recombinant CES1A1. It is filed as biochemical. The method, then:
(§1) Formation of imidaprilat from imidapril was determined according to the method described previously with a slight modification. The incubation mixture (200 μl of total volume), including the microsomes, 100 mM Tris-HCl buffer (pH 7.4) and inhibitors, was preincubated at 37°C for 2 min. The reaction was initiated by the addition of imidapril (100 μM), followed by incubation of the mixture at 37°C for 15 min. The reaction was terminated by adding 200 μl of ice-cold ethyl acetate and the mixture was next dried under N2. Cetirizine was added as an internal standard. After centrifugation at 15000 g for 5 min, imidaprilat in the supernatant (10 μl) was quantified employing a liquid chromatography-tandem mass spectrometry system. Diamonsil C18 (5 μm,150×2.1 mm) was used as the analytical column, with acetonitrile-0.1% (v/v) formic acid (1∶2, v/v) as the mobile phase at a flow rate of 0.3 mL·min^−1. The calibration curve of imidaprilat in the incubation mixture was linear over a concentration range of 5–1000 ng·ml^−1 (r = 0.9991). Interday and intraday coefficients of variation of the different quality control samples were both less than 10%.
The inhibitory effects of 25 excipients on imidapril and CPT-11 hydrolase activities were investigated. These excipients were classified into 6 groups based on their chemical and physical characteristics: (1) Adhesives: HPC, PVP, CMC-Na, PEG4000, PEG6000 and sodium alginate; (2) Fillers: lactose, MCC and mannitol; (3) Co-solvents: PG, glycerin, PEG200 and PEG400; (4) Surfactants: Tween 20, Tween 80, SLS, S40, F68, Triton X-100, RH40 and EL35; (5) Absorption enhancers: lecithin and oleic acid; (6)Antioxidants: Vit.C and NaHSO3. […] All data were analysed using the mean of duplicate determinations. […]
(§2) The Ki, Km and Vmax values and inhibition types were determined by fitting the kinetic data to a competitive, noncompetitive, uncompetitive or mixed inhibition model by the Enzyme Kinetics Module using SigmaPlot 12.0 (Systat Software, Inc., San Jose, CA). […]

Assay [2] addresses T2, human liver microsomes (HLM) (Homo sapiens, UniProt P23141).
T2 construct: Pooled human liver microsomes (HLM) were purchased from BD Gentest; tissue BD Gentest (Woburn, MA); host or cells: pooled human liver microsomes
T2 sequence (P23141 18-567): T1 sequence (P23141 18-567)
Briefly: Imidapril hydrolase activity (imidaprilat formation) of HLM. It is filed as biochemical. The method, then:
as §1, with “The calibration curve of imidaprilat in the incubation mixture was linear over a concentration range of 5–1000 ng·ml^−1 (r = 0.9991). Interday and intraday coefficients of variation of the different quality control samples were both less than 10%.” left out
The inhibitory effects of 25 excipients on imidapril and CPT-11 hydrolase activities were investigated. […] All data were analysed using the mean of duplicate determinations. […]
as §2

For assay [3], the target named is T1, recombinant human CES1A1. In words: p-Nitrophenyl acetate hydrolase activity of recombinant CES1A1. It is filed as biochemical. The method, then: (§3) p-Nitrophenyl acetate hydrolase activity was determined according to the methods described previously.
(§4) To compare the inhibitory effects, the enzyme activities at 150 μM p-nitrophenyl acetate were examined. The concentrations of the tested excipients were 500 μM, except that F68, EL35, RH40, lecithin, PVP and Sodium alginate were 100 μg/ml. […] The concentration range of inhibitors was as follows: SLS, 0.02–0.5 μg/ml, RH40, 0.1–5 μg/ml, Tween 20, 0.5–15 μg/ml, and EL 35, 3–40 μg/ml.

The target of a further assay is T3, recombinant human CES2 (Homo sapiens, UniProt O00748).
T3 construct: purchased BD Gentest (Woburn, MA); host or cells: baculovirus-insect cells
T3 sequence (O00748 27-559): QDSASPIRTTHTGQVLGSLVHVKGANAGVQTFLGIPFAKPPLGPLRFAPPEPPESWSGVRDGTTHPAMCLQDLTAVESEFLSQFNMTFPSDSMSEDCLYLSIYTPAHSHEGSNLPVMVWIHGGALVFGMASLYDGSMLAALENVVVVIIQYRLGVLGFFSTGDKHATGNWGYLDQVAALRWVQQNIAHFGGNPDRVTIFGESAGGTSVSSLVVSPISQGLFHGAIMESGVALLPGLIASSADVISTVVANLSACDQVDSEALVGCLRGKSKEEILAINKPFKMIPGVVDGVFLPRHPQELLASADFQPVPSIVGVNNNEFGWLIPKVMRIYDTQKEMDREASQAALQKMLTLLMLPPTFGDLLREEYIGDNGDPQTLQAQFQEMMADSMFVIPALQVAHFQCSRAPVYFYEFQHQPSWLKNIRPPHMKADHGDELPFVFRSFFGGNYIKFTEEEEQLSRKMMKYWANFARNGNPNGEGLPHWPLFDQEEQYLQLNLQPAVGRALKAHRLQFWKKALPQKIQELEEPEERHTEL
Briefly: p-Nitrophenyl acetate hydrolase activity of recombinant CES2. Type of assay: biochemical. As to the method: as §3, §4

A further assay addresses CES1A1 and CES2. Further details: method as in PMID 20810539. The note with it: human CES enzyme activity; isoform per drug not stated; read-out: inhibition constant (Ki); cited from earlier work.
Setting [4] is: 150 μM p-nitrophenyl acetate, excipients 500 μM except F68, EL35, RH40, lecithin, PVP, sodium alginate 100 μg/ml.

Consider `CCCCCCCCCCCCOS(=O)(=O)[O-].[Na+]` [SLS, sodium lauryl sulphate], for which, at recombinant human CES1A1 [1] (100 μM imidapril, excipients 500 μM except F68, EL35, RH40, lecithin, PVP, sodium alginate 100 μg/ml, control 1.83 nmol/min/mg), the “imidapril hydrolase activity, percentage of control” value came out at 2.9%. Besides, the “inhibition type, imidapril hydrolase activity” value (on recombinant human CES1A1 [1] (recombinant CES1A1); in assay [2]) was “competitive-type” throughout. Also, the “Ki, imidapril hydrolase activity” value on recombinant human CES1A1 [1] (recombinant CES1A1, imidapril 25-200 μM, mean ± S.E.) came out at 0.04 ± 0.01 µg/mL. In addition, the “p-nitrophenyl acetate hydrolase activity, percentage of control” value at recombinant human CES1A1 [3] (setting [4]) is 3.6%; at recombinant human CES2 (setting [4]), 30–60%. Further, the “IC50, p-nitrophenyl acetate hydrolase activity” value on recombinant human CES1A1 [3] (150 μM substrate) came to 0.20 µg/mL; at recombinant human CES2 (150 μM substrate) it was 0.30 µg/mL.
With `CCC(C)(C)C(=O)O[C@H]1C[C@@H](C)C=C2C=C[C@H](C)[C@H](CC[C@@H]3C[C@@H](O)CC(=O)O3)[C@H]21` [simvastatin], on CES1A1 and CES2, the inhibition constant Ki is 110 nM.
As for `Cc1c(C)c2c(c(C)c1O)CCC(C)(COc1ccc(CC3SC(=O)NC3=O)cc1)O2` (stereo not shown) [troglitazone], the Ki at CES1A1 and CES2 was 620 nM.

For orientation: Ki means a dissociation constant, usually derived from enzyme kinetics or from competition with a known ligand.
